# PMC12196278, “Targeting Neuronal Nitric Oxide Synthase (nNOS) as a Novel Approach to Enhancing the Anti-Melanoma Activity of Immune Checkpoint Inhibitors” (Pharmaceutics, 2025)
# Read-outs that look alike come from different tables or passages of the source.
# Legend:
# CS91 cells = experiment: Ex vivo sensitivity of murine melanoma cells after prolonged treatment (MTT); type: cell-based, mouse
# Experimental: The aseptically collected tumor samples were mechanically dissociated in 1× PBS and passed through a 40 µm cell strainer. Single cell suspensions were centrifuged and resuspended in full growth media supplemented with 100 µg/mL of primocin. The cells were then plated and allowed to adhere for 24 h. Afterward, the cultures were washed twice with 1× PBS to remove non-adherent cells and allowed to grow in full growth media.
# GraphPad Prism 9 was used to determine the IC50 of each compound by plotting the percent cell viability against the log drug concentrations and fitted using a nonlinear fit of the normalized data.
# Human eNOS = Human eNOS (Homo sapiens, UniProt P29474); experiment: NOS selectivity assay, human eNOS; type: biochemical; conditions: calculated from IC50 with Cheng-Prusoff equation; read-out: Ki Human eNOS (he)
# Sequence of Human eNOS (P29474 whole entry): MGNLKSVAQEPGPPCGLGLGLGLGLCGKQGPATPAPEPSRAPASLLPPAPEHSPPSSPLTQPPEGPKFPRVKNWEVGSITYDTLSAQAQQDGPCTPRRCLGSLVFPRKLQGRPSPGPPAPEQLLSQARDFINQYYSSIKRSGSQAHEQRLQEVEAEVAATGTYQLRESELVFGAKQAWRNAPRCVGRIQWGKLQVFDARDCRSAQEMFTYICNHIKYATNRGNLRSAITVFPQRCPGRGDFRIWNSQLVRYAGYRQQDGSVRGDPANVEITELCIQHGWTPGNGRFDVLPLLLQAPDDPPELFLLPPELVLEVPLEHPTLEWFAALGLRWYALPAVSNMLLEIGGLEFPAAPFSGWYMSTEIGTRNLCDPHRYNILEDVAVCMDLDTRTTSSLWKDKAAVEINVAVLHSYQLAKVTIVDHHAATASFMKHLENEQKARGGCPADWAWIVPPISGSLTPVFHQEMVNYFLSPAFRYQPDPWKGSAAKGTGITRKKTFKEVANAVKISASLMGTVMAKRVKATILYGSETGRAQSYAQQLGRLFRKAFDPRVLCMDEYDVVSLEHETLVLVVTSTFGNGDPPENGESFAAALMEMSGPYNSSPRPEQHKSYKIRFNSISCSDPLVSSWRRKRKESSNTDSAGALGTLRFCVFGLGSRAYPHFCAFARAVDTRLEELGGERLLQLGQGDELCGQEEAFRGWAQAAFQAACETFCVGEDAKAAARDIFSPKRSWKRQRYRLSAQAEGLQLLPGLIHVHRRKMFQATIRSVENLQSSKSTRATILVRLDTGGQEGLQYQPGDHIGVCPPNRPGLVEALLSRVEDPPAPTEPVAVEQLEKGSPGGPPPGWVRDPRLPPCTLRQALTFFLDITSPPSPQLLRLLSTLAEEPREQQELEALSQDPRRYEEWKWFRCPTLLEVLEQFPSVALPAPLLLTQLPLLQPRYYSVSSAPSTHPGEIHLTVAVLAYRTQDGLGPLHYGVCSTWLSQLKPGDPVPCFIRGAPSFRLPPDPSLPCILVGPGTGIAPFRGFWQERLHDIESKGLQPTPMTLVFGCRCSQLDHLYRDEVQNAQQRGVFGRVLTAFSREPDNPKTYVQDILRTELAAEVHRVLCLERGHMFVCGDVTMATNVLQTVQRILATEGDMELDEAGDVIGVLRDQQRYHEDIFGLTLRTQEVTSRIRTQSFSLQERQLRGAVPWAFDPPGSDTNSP
# Experimental: The Ki values were calculated from the IC50 values of the corresponding dose-response curves using the Cheng-Prusoff equation. […] All standard errors were less than 5%. Selectivity values were determined by calculating the ratios of the respective Ki values.
# melanoma cells = tested on: melanoma cells; design: method as in PMID 35105915; conditions: read-out: Cytotoxicity IC50; cited from earlier work
# peripheral T cells = experiment: Immune profile of peripheral T cells in allograft melanoma mice (flow cytometry); type: in vivo, mouse; conditions: HH044 10 mg/kg intraperitoneal daily, peripheral blood, vs control group
# Experimental: The in vivo studies were carried out in compliance with the ARRIVE guidelines. All animal procedures were approved by the Institutional Animal Care and Use Committee (IACUC) at Chapman University and conducted in compliance with the policies of Chapman University and federal, state, and local animal welfare authorities. DBA/2 mice were purchased from Charles River (Wilmington, MA, USA) and housed in the Chapman University vivarium. Male mice were selected for the in vivo studies due to the markedly slow growth rate of CS91 cells in female mice observed in previous studies. To induce melanoma tumor growth, the mice were injected subcutaneously with 1 × 10^5 CS91 murine melanoma cells in a 100 μL solution of 50% Matrigel basement membrane matrix (CB354248, Corning, Corning, NY, USA). […] At the end of the study, peripheral blood was collected from the mice for T cell analysis.
# Cells were blocked in FACS block buffer (0.5% BSA, 2% FBS in 1× PBS) and incubated in a surface marker antibody dilution in FACS wash buffer (0.5% BSA, 0.05% NaN3 in 1× PBS). Following fixation with True-Nuclear Fix Buffer (424401; BioLegend, San Diego, CA, USA), the cells were incubated with an intracellular antibody diluted in True-Nuclear Perm Buffer (424401; BioLegend, San Diego, CA, USA) overnight at 4 °C. The stained cells were then washed with Perm Buffer and analyzed using a BD Fortessa X20 flow cytometer (BD Biosciences, San Jose, CA, USA). Compensation beads (anti-mouse 552843; anti-rat 552844; BD Biosciences, Franklin Lakes, NJ, USA) stained with single antibodies were used to calculate the compensation, and data were analyzed and gated using FlowJo v. 10.8.1 (FlowJo LLC, Ashland, OR, USA).
# Peripheral blood samples were collected from the DBA/2 mice at the end of the study. T cells were isolated from the blood using Ficoll separation and stained as described above. The Ficoll-Paque solution was obtained from Cytiva (17144002; Marlborough, MA, USA). The T cell marker antibodies used were Brilliant Violet 605 anti-mouse CD3, PE/Cyanine7 anti-mouse CD4, Brilliant Violet 785 anti-mouse CD8a, APC/Cyanine7 anti-mouse CD279 (PD-1), Alexa Fluor 647 anti-GATA3, Alexa Fluor 488 anti-mouse FOXP3, Brilliant Violet 421 anti-T-bet (100237; 100421; 100749; 135223; 653809; 126406; 644815; BioLegend, San Diego, CA, USA), and PE-CF594 mouse anti-mouse RORγt (562684; BD Biosciences, Franklin Lakes, NJ, USA).
# A375 cells = experiment: NanoString nCounter PanCancer IO 360 gene expression profiling; type: cell-based, human
# Experimental: After treatment, the total RNA samples were collected from A375 cells using an RNeasy Mini Kit (#74104; Qiagen, Hilden, Germany) and stored at −80 °C prior to analysis. The nCounter PanCancer IO 360 Panel and nCounter Pro Analysis System (NanoString, Seattle, WA, USA) were used to quantify gene expression changes in 770 genes implicated in immune-oncological processes. The transcriptomic data were analyzed using ROSALIND online platform (https://www.rosalind.bio/, San Diego, CA, USA).
# (b) Comparing IFN-γ treatment to control. (c) Comparing the combination treatment to IFN-γ alone. […] All the treatments were independently repeated three times. […] The analysis was based on the expression changes of genes involved in each specific pathway, with a higher score signifying a greater probability of pathway involvement.
# Human nNOS = Human nNOS (Homo sapiens, UniProt P29475); experiment: nNOS inhibitory assay, human nNOS; type: biochemical; conditions: calculated from IC50 with Cheng-Prusoff equation; read-out: Ki Human nNOS (hn)
# Sequence of Human nNOS (P29475 whole entry): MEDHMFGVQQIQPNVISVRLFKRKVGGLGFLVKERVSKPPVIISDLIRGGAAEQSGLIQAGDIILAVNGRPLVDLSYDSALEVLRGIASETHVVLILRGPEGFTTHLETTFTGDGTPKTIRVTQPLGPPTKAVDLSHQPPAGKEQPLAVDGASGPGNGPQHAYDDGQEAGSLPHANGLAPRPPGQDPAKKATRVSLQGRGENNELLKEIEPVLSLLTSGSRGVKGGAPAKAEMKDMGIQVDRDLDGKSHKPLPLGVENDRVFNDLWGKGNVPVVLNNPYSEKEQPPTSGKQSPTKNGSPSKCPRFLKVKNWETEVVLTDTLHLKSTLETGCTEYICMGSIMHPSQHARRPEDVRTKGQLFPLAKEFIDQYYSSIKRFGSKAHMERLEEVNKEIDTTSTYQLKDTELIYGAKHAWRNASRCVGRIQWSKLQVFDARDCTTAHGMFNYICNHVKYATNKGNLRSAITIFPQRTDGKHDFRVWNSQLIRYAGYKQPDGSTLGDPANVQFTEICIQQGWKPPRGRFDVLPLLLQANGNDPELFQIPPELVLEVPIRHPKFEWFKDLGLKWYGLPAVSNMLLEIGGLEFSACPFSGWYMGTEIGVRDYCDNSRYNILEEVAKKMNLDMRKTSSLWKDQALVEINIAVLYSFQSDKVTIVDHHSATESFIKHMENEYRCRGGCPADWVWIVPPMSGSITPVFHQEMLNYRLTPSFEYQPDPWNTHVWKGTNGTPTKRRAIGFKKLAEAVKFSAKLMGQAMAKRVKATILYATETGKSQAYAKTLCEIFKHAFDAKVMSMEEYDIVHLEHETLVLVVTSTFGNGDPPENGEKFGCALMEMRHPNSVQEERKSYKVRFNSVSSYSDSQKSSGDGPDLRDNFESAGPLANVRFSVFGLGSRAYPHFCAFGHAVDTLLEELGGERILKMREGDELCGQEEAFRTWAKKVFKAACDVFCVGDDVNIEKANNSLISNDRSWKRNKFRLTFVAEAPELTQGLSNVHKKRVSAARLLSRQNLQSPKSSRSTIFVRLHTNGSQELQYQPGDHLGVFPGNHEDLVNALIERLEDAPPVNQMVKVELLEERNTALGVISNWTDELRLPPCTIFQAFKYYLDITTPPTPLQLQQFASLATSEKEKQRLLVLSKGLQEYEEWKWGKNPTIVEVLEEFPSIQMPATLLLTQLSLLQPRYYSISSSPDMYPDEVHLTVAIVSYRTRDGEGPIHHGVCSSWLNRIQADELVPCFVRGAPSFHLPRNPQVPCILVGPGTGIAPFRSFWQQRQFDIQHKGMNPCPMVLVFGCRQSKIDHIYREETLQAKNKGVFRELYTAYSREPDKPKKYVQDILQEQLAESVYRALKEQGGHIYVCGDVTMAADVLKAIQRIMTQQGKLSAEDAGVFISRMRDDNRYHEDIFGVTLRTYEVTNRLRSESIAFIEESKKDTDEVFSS
# Experimental: The Ki values were calculated from the IC50 values of the corresponding dose-response curves using the Cheng-Prusoff equation. […] Selectivity values were determined by calculating the ratios of the respective Ki values.
# [1] = tested on: CS91 murine melanoma allograft; experiment: In vivo anti-melanoma efficacy, immunocompetent allograft model, tumor volume; design: species or system mouse; conditions: day 18, DBA/2 mice, nNOS inhibitor 10 mg/kg/day intraperitoneal, anti-PD-1 100 µg twice per week for 2 weeks
# Experimental: (§1) As described above, male DBA/2 mice were purchased from Charles River and housed in the Chapman University vivarium under pathogen-free conditions. Each mouse received a subcutaneous injection in the flank with 0.25 × 10^6 CS91 cells suspended in 50% Matrigel. […] The body weight and tumor volume were measured twice weekly for three weeks. Tumors were measured using calipers, and the volume (mm^3) was calculated with the following formula: volume = [length × (width^2)]/2. The mice were sacrificed once their tumors reached 2000 mm^3, and dates were recorded for survival analysis.
# [2] = Body weight, cecum weight and toxicity signs in treated mice; type: in vivo, mouse
# Experimental: as §1
# Upon reaching the study endpoint, the mice were euthanized, and organs were collected and weighed.
# [3] = tested on: CS91 murine melanoma allograft; experiment: Survival analysis in the murine melanoma model (endpoint tumor volume 2000 mm^3); type: in vivo, mouse; conditions: DBA/2 mice, CS91, result in words
# Experimental: as §1
# Statistical analyses were carried out using GraphPad Prism 9. Comparisons of multiple groups were performed using mixed-effects analysis of variance (ANOVA) followed by Tukey’s post hoc test for parametric data. Statistical comparisons of two groups were performed using an unpaired two-tailed t-test for parametric data. Statistical comparison for a simple 2 × 2 contingency table was performed using a Chi-Square calculator on Social Science Statistics. Kaplan Meier methods were utilized for estimating the survival probability over time, with a tumor volume of 2000 mm^3 marking the endpoint for the survival study. A p value less than 0.05 was considered statistically significant for all statistical analyses. Data are graphically represented as bar graphs with the mean ± standard error of the mean (SEM).
compound,measurement,setting,value
N=C(Nc1ccc(CCNCc2cccc(NC(=N)c3cccs3)c2)cc1)c1cccs1 [HH044],IC50,"CS91 cells; mice treated with the same compound 10 mg/kg/day intraperitoneal, read-out: IC50 of CS91 cells isolated from tumors of nNOS inhibitor-treated mice",10.4 µM
same,IC50,CS91 cells; read-out: IC50 of in vitro cultured CS91 cells,12.7 µM
same,Ki,Human eNOS,6.74 µM
same,IC50,melanoma cells,5.27 ± 3.3 µM
same,CD4+ T cell counts,peripheral T cells,significantly increased
same,"CD4+GATA3+, CD4+RORγt+, CD4+Tbet+, and CD4+RORγt+FOXP3+ T cell counts",peripheral T cells,decreased
same,"CD8+FOXP3+, CD8+GATA3+, CD8+Tbet+, and CD8+RORγt+FOXP3+ T cells",peripheral T cells,significantly decreased
same,frequency of CD8+PD-1+ T cells,peripheral T cells,markedly increased
same,overall percentage of CD8+ T cells,peripheral T cells,significantly decreased
same,Notch2 expression,A375 cells; HH044 in the presence of IFN-γ,increased
same,AXIN1 expression,"A375 cells; HH044 treatment, A375",increased
same,WNT5A expression,"A375 cells; HH044 treatment, A375",downregulated
same,IL-1α expression,"A375 cells; HH044 treatment, A375, p < 0.05",30.3 % of the control
same,"expression of EDN1, PDGFB, and MMP9","A375 cells; HH044 treatment, A375, vs control",significantly reduced
same,Ki,Human nNOS,0.02 µM
same,tumor growth / average tumor volume,[1],45.7 % of the control
same,cecum weights,"[2]; HH044 intraperitoneal 10 mg/kg/day ≥21 days vs control, p < 0.0001",significantly increased
same,cecum weight,"[2]; HH044 oral gavage 10, 25 and 50 mg/kg per os daily, preliminary study",failed to observe any significant differences
same,behavior and signs of toxicity during treatment,[2]; HH044 treatment ≥21 days,no behavioral changes or other observable signs of severe toxicity or distress
same,body weight,"[2]; HH044 treatment, 21 days",88 % of the control
same,body weight compared with the control,"[2]; prolonged treatment, 21 days",significantly lower
same,median survival / mouse survival compared with the control group,[3],not found to have significantly different median survival values
